Here are results for two molecules from patent publication US20110224214A1, “PROCESS FOR PREPARING POLYMORPH” (SANOFI-AVENTIS U.S. LLC, priority 2008, published 2011).

For data set [1], the target named is peripheral-type benzodiazepine receptors (Homo sapiens, UniProt P30536). As to conditions: cited from earlier work.
Data set [2] is described as follows: impurity profile by HPLC after annealing. Format: physicochemical. The note with it: annealed at 80° C. for 1 hour. Here is the method: 4.0 g of drug substance were dissolved in 200 mL of a 50/50 (by volume) mixture of DCM and EtOH at 20° C. The mixture was stirred for about 1 hour. The resulting clear solution was spray dried in a Buchi B290 Mini Spray Dryer by pumping the solution through a 0.7 mm nozzle (commercially available from Buchi) at approximately 2 to 3 mL/minute. The system was operated at an inlet gas temperature of 100° C. and an outlet gas temperature of approximately 70° C. The solvent was removed to isolate the solid (approximately 3.0 g).
The HPLC method parameters utilized in Example 4 were as follows: System HP 1050, column-Waters C8 Symmetry Shield 5 um (4.6×150 mm), Mobile phase (“A”): 0.05% formic acid in water, Mobile phase (“B”): 0.05% formic acid in acetonitrile, injection volume: 10 μl, wavelength: 258 nm, and flow rate: 0.8 mL/minute. A gradient method was used according to the time table below.

Data set [3] is described as follows: polymorphic stability during wet granulation (XRPD). Format: physicochemical. As to conditions: wet granulation of Example 6, dried at 50° C. for 2 hours. Here is the method: The sample prepared according the Example 5, above was used to prepare a wet granulation formulation with the following composition: […]
The drug substance product of Example 5, lactose, microcrystalline cellulose (Avicel®, available from FMC BioPolymer, Philadelphia, Pa.), and sodium starch glycolate were pre-blended by screening five times with a 20 mesh screen. For the granulating fluid, the hydroxypropylmethylcellulose was dissolved in hot water at 5% concentration then cooled to 20° C. The sodium lauryl sulfate was dissolved in the cooled granulating fluid at 1.5% concentration. Approximately 50% water (relative to the weight of total solids) was used to prepare the granulation; the granulating fluid was added dropwise to the premixed powders while mixing in a mortar and pestle. The granulation was dried at 50° C. for 2 hours, and then ground in a mortar and pestle prior to analysis.
XRPD patterns were obtained with a Bruker D8® ADVANCE X-ray powder diffractometer using copper K-alpha radiation. The instrument was equipped with parallel beam optics, and the tube voltage and amperage were set to 40 kV and 40 mA, respectively. Samples were scanned at a rate of 1.0 degree/minute from 2 to 40 degrees in angle 2-theta.

Data set [4] in a line: stability profile of the crystalline form. Format: physicochemical.

SMILES strings stand for the structures. “Also recorded” adds a separate entry of the source.

peripheral-type benzodiazepine receptors, sequence (P30536 whole entry): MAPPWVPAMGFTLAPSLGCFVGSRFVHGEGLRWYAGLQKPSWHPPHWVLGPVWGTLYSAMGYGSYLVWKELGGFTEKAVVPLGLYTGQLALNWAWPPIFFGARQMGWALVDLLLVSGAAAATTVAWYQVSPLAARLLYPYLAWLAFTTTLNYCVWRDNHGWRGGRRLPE

For `CN(C)C(=O)Cc1nn(-c2ccccc2)c(=O)c2c1c1ccc(Cl)cc1n2C` [7-Chloro-N,N,5-trimethyl-4-oxo-3-phenyl-3,5-dihydro-4H-pyridazino[4,5-b]indole-1-acetamide], the “affinity for the peripheral-type benzodiazepine receptors” value in data set [1] is given as “high affinity”.

For the molecule `CN(C)C(=O)Cc1nn(-c2ccccc2)c(=O)c2c1c1ccc(Cl)cc1n2C` [Form II, 7-chloro-N,N,5-trimethyl-4-oxo-3-phenyl-3,5-dihydro-4H-pyridazino[4,5-b]indole-1-acetamide], the “changes in the impurity profile after the annealing process (HPLC)” value in data set [2] was “no changes in the impurity profile”. Moreover, the “conversion of Form II to crystalline Form I during the wet granulation process (XRPD)” value in data set [3] is listed as “no evidence of the Form II solid converting to crystalline Form I; also recorded: stable with respect to wet granulation”. Also, the “stability profile to support use in a pharmaceutical product” value in data set [4] is listed as “sufficient stability profile”.
